Results on 15 compounds are retold here after patent US9839642B2, “Beta-tetrazolyl-propionic acids as metallo-beta-lactamase inhibitors” (priority 2014, dated 2017).

The structures appear in SMILES notation.

For assay [1], the target named is IMP-1 (Serratia marcescens, UniProt P52699). Description: Enzyme activity: determination of IC50, fluorescence assay with CCF2-FA substrate. Conditions: enzyme 2 pM, CCF2-FA 1.25 μM, 2 hours at 25° C.; read-out: IMP1 IC50. It counts as biochemical. The protocol:
(§1) Enzyme Activity: Determination of IC50
(§2) The Class B enzyme activities were measured in the presence of a compound of the EXAMPLES as a test inhibitor in a fluorescence assay against a commercially available substrate consisting of a cephalosporin core linking 7-hydroxycoumarin to fluorescein (CCF2-FA; Life Technologies, Grand Island, N.Y.). The enzyme (NDM-1, IMP-1 or VIM-1) and the substrate were diluted in 100 mM KH2PO4 buffer (pH 7) containing 0.005% Tween-20 and 10 μM ZnSO4. In the assay, the final concentration of enzyme was 1 pM, 2 pM and 30 pM for NDM-1, IMP-1 and VIM-1, respectively, and the final concentration of CCF2-FA was 1.25 μM. The test inhibitor was dissolved in DMSO and diluted 1:50 in the assay, resulting in a final concentration range of 20 μM to 0.00063 μM. In a 384-well microplate, the test inhibitor was incubated with the metallo-β-lactamase enzyme and the substrate for 2 hours at 25° C. Fluorescence at 460 nm following excitation at 405 nm was measured. The IC50 value was determined from semi-logarithmic plots of enzyme inhibition versus inhibitor concentration, with a curve generated using a 4-parameter fit.

Assay [2] has as its target NDM-1 (Klebsiella pneumoniae, UniProt C7C422). Described as above. It counts as biochemical. As to conditions: enzyme 1 pM, CCF2-FA 1.25 μM, 2 hours at 25° C.; read-out: NDM1 IC50. How it is done:
as §1, §2

Assay [3] has as its target VIM-1 (Pseudomonas aeruginosa, UniProt A0A0F7KYQ8). The description is as above. It counts as biochemical. As to conditions: enzyme 30 pM, CCF2-FA 1.25 μM, 2 hours at 25° C.; read-out: VIM1 IC50. How it is done:
as §1, §2

Assay [4] relates to Escherichia coli expressing NDM-1 (CLB30016). Description: Antibiotic potentiation activity: synergistic concentration (MITC95) with imipenem, growth by OD600. It counts as cell-based. Conditions: 95% inhibition of bacterial growth, strain CLB30016. How it is done:
(§3) Antibiotic Potentiation Activity: Determination of Synergistic Concentration
(§4) The bacterial strains tested included the clinical strains Escherichia coli expressing NDM-1 (CLB30005, CLB30016), Serratia marcescens expressing IMP-1 (CL5741), and Klebsiella pneumoniae expressing VIM-1 (IHMA599644). Inhibitor activity was measured in the presence and absence of imipenem or ceftazidime in a 384-well microplate.
(§5) The clinical strains CLB30016, CL5741, and IHMA599644 were grown on trypticase soy agar containing 5% sheep's blood. The clinical strain CLB30005 was grown on Mueller Hinton broth agar containing 8 μg/ml imipenem. The bacteria on agar plates were incubated overnight at 35° C. with ambient humidity (achieved from an open pan of water inside the incubator). The following day, individual colonies from each clinical strain were picked and resuspended in 5 ml saline to attain an OD600 of 0.14, 0.11, 0.15 and 0.13, for CLB30005, CLB30016, CL5741 and IHMA599644, respectively. These were further diluted 1:100 into 1.1×CAMHB and used to inoculate the test wells as described below.
(§6) Imipenem in 10 mM 3-(N-morpholino)propanesulfonic acid (MOPS, pH 7) was stored in single use aliquots at −80° C. Test inhibitors were dissolved in DMSO and diluted 1:50 in the assay, resulting in a final concentration range of 200 μM to 0.195 μM. On the day of the assay, 4 μl of antibiotic was added to 45 μl of bacteria followed by 1 μl of test compound and mixed by pipetting and with an orbital shaker. The concentration of antibiotic used in the assay was 1 μg/ml or 4 μg/ml. Microplates were covered and incubated at 35° C. for 22 hours to 24 hours. At the end of the incubation, absorbance was determined using a spectrophotometer. The synergistic concentration of MBLI was determined by identifying the lowest concentration of test compound in the presence of a given concentration of antibiotic that was required to inhibit 95% of the growth of the bacteria.
(§7) Representative compounds of the present invention display a synergistic effect. For example, representative compounds of EXAMPLES 1-456 were determined to restore susceptibility to imipenem at concentrations of 200 μM or less.

Assay [5] deals with Klebsiella pneumoniae expressing VIM-1 (IHMA599644). The assay is described as above. It counts as cell-based. Conditions: 95% inhibition of bacterial growth, strain IHMA599644. The protocol:
as §3, §4, §5, §6, §7

The test system of assay [6] is Serratia marcescens expressing IMP-1 (CL5741). The assay is described as above. It counts as cell-based. Conditions: 95% inhibition of bacterial growth, strain CL5741. How it is done: as §3, §4, §5, §6, §7

Chain of NDM-1 (C7C422 29-270, looked up, species assumed): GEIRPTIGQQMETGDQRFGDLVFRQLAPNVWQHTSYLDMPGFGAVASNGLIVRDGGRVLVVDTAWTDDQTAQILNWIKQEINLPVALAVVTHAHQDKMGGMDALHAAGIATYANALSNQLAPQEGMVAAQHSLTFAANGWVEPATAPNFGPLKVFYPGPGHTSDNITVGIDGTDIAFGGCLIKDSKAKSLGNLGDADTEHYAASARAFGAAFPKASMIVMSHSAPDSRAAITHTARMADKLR
Chain of IMP-1 (P52699 19-246, looked up, species assumed): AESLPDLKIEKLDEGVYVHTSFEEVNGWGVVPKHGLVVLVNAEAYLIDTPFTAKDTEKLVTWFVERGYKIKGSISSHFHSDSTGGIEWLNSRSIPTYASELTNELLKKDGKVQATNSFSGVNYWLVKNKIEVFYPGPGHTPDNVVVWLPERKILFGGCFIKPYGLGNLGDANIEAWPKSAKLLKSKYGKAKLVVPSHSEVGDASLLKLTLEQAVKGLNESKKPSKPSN

By IC50 is commonly meant the concentration that gives 50% inhibition. With `CC(C)C[C@H](C(=O)O)[C@H](Cc1ccc(Br)c(F)c1)c1nnn[nH]1` [Example 23, (2S)-2-[(1S)-2-(4-bromo-3-fluorophenyl)-1-(1H-tetrazol-5-yl)ethyl]-4-methylpentanoic acid], the IC50 was 88 nM in assay [1], 20 nM in assay [2] and 1.4 nM in assay [3]. Further, in assay [4], the “NDM1 EC30016 MITC95” value worked out at 6.3 µM. Besides, the “VIM1 KP599644 MITC95” value in assay [5] is 31 µM. The “IMP1 SM5741 MITC95” value in assay [6] is 3.1 µM.
Turning to `CC(C)C[C@H](C(=O)O)[C@H](Cc1cc(F)cc(Br)c1)c1nnn[nH]1` [Example 24, (2S)-2-[(1S)-2-(3-bromo-5-fluorophenyl)-1-(1H-tetrazol-5-yl)ethyl]-4-methylpentanoic acid], the IC50 in assay [1] was determined as 230 nM; in assay [2], 18 nM; in assay [3] it was 0.6 nM. Also, in assay [4], the “NDM1 EC30016 MITC95” value came to 9.4 µM. The “VIM1 KP599644 MITC95” value in assay [5] is 12.5 µM. For the same compound, in assay [6], the “IMP1 SM5741 MITC95” value was 4.7 µM.
Consider `CC(C)C[C@H](C(=O)O)[C@H](Cc1ccc(Br)cc1)c1nnn[nH]1` [Example 25, (2S)-2-[(1S)-2-(4-bromophenyl)-1-(1H-tetrazol-5-yl)ethyl]-4-methylpentanoic acid], for which the IC50 in assay [1] was found to be 87 nM; in assay [2], 32 nM; in assay [3], 2.6 nM. Besides, the “NDM1 EC30016 MITC95” value in assay [4] was 4.7 µM. Further, the “VIM1 KP599644 MITC95” value in assay [5] was 12.5 µM. Moreover, in assay [6], the “IMP1 SM5741 MITC95” value was 3.1 µM.
For the compound `CCC[C@H](C(=O)O)[C@H](Cc1ccccc1Br)c1nnn[nH]1` [Example 26, (2S)-2-[(1S)-2-(2-bromophenyl)-1-(1H-tetrazol-5-yl)ethyl]pentanoic acid], the figures for the half-inhibitory concentration (IC50) in assay [1], in assay [2] and in assay [3] were 570 nM, 9.9 nM and 2.4 nM, respectively. For the same compound, the “NDM1 EC30016 MITC95” value in assay [4] is 3.1 µM. In assay [5], the “VIM1 KP599644 MITC95” value amounted to 18.8 µM. In assay [6], the “IMP1 SM5741 MITC95” value worked out at 12.5 µM.
Take `CCC[C@H](C(=O)O)[C@H](Cc1cccc(C#N)c1)c1nn[nH]n1` [Example 41, (2S)-2-[(1S)-2-(3-cyanophenyl)-1-(1H-tetrazol-5-yl)ethyl]pentanoic acid]: the IC50 is 590 nM in assay [1], 60 nM in assay [2] and 0.87 nM in assay [3]. The “NDM1 EC30016 MITC95” value in assay [4] amounted to 18.8 µM. The “VIM1 KP599644 MITC95” value in assay [5] was 18.8 µM. In addition, in assay [6], the “IMP1 SM5741 MITC95” value was found to be 37.5 µM.
Consider `CC(C)C[C@H](C(=O)O)[C@H](Cc1ccc(C#N)cc1)c1nnn[nH]1` [Example 42], for which the IC50 in assay [1] worked out at 190 nM; in assay [2], 74 nM; in assay [3], 1.4 nM. Besides, the “NDM1 EC30016 MITC95” value in assay [4] is 18.8 µM. In assay [5], the “VIM1 KP599644 MITC95” value amounted to 37.5 µM. Further, the “IMP1 SM5741 MITC95” value in assay [6] turned out to be 12.5 µM.
For `CCC[C@H](C(=O)O)[C@H](Cc1ccccc1C#N)c1nnn[nH]1` [Example 43, (2S)-2-[(1S)-2-(2-cyanophenyl)-1-(1H-tetrazol-5-yl)ethyl]pentanoic acid], the results for the half-inhibitory concentration (IC50) in assay [1], in assay [2] and in assay [3] were 1600 nM, 22 nM and 3.2 nM, respectively. Further, the “NDM1 EC30016 MITC95” value in assay [4] came out at 4.7 µM. Moreover, the “VIM1 KP599644 MITC95” value in assay [5] was found to be 31 µM. The “IMP1 SM5741 MITC95” value in assay [6] came out at 50 µM.
Turning to `CCC[C@H](C(=O)O)[C@H](Cc1ccc(-c2nnn[nH]2)cc1)c1nn[nH]n1` [Example 44, (S)-2-((S)-2-(4-(1H-tetrazol-5-yl)phenyl)-1-(2H-tetrazol-5-yl)ethyl)pentanoic acid], the half-inhibitory concentration (IC50) in assay [1] was 640 nM; in assay [2], 21 nM; in assay [3], 5.5 nM. Further, the “NDM1 EC30016 MITC95” value in assay [4] was 150 µM. Also, in assay [5], the “VIM1 KP599644 MITC95” value came to 200 µM. For the same compound, in assay [6], the “IMP1 SM5741 MITC95” value worked out at 18.8 µM.
Take `CCC[C@H](C(=O)O)[C@H](Cc1cccc(C(N)=O)c1)c1nn[nH]n1` [Example 46, (2S)-2-[(1S)-2-(3-carbamoylphenyl)-1-(2H-tetrazol-5-yl)ethyl]pentanoic acid]: the values for the IC50 in assay [1], in assay [2] and in assay [3] were 1600 nM, 70 nM and 5.9 nM, respectively. Further, the “NDM1 EC30016 MITC95” value in assay [4] was 9.4 µM. The “VIM1 KP599644 MITC95” value in assay [5] was 12.5 µM. Further, the “IMP1 SM5741 MITC95” value in assay [6] came to 37.5 µM.
`CCC[C@H](C(=O)O)[C@H](Cc1ccccc1C(N)=O)c1nnn[nH]1` [Example 47, (2S)-2-[(1S)-2-(2-carbamoylphenyl)-1-(1H-tetrazol-5-yl)ethyl]pentanoic acid]: the IC50 was 7200 nM in assay [1], 120 nM in assay [2] and 73 nM in assay [3]. Moreover, in assay [4], the “NDM1 EC30016 MITC95” value was 9.4 µM. In assay [5], the “VIM1 KP599644 MITC95” value stood at 37.5 µM. Further, in assay [6], the “IMP1 SM5741 MITC95” value came out at 200 µM.
Consider `CC(C)C[C@H](C(=O)O)[C@H](Cc1ccc(C(N)=O)cc1)c1nnn[nH]1` [Example 48, (2S)-2-[(1S)-2-(4-carbamoylphenyl)-1-(1H-tetrazol-5-yl)ethyl]-4-methylpentanoic acid], for which the concentration for half-maximal inhibition (IC50) in assay [1] was found to be 130 nM; in assay [2], 43 nM; in assay [3] it was 2.2 nM. The “NDM1 EC30016 MITC95” value in assay [4] amounted to 6.2 µM. Moreover, the “VIM1 KP599644 MITC95” value in assay [5] amounted to 50 µM. In assay [6], the “IMP1 SM5741 MITC95” value was found to be 4.7 µM.
Turning to `CC(C)C[C@H](C(=O)O)[C@H](Cc1ccc(S(C)(=O)=O)cc1)c1nn[nH]n1` [Example 50, (S)-4-methyl-2-((S)-2-(4-(methylsulfonyl)phenyl)-1-(2H-tetrazol-5-yl)ethyl)pentanoic acid], the half-inhibitory concentration (IC50) in assay [1] was found to be 100 nM; in assay [2], 47 nM; in assay [3], 6.6 nM. The “NDM1 EC30016 MITC95” value in assay [4] was determined as 25 µM. In addition, the “VIM1 KP599644 MITC95” value in assay [5] was determined as 50 µM. Besides, in assay [6], the “IMP1 SM5741 MITC95” value worked out at 6.2 µM.
With `CC(C)CC(C(=O)O)[C@H](Cc1ccc(S(C)(=O)=O)cc1)c1nn[nH]n1` (stereo partly drawn) [Example 51, CAN-4-methyl-2-((S)-2-(4-(methylsulfonyl)phenyl)-1-(2H-tetrazol-5-yl)ethyl)pentanoic acid], the 50% inhibitory concentration (IC50) in assay [1] was determined as 540 nM; in assay [2] it was 180 nM; in assay [3], 25 nM. In assay [4], the “NDM1 EC30016 MITC95” value was determined as 75 µM. In addition, the “VIM1 KP599644 MITC95” value in assay [5] is 150 µM. Besides, the “IMP1 SM5741 MITC95” value in assay [6] stood at 25 µM.
For `CCC[C@H](C(=O)O)[C@H](Cc1ccc(C)cc1)c1nn[nH]n1` [Example 52, (S)-2-((S)-1-(2H-tetrazol-5-yl)-2-(p-tolyl)ethyl)pentanoic acid], the IC50 in assay [1] came out at 680 nM; in assay [2], 87 nM; in assay [3], 10 nM. Also, the “NDM1 EC30016 MITC95” value in assay [4] stood at 18.8 µM. Further, in assay [5], the “VIM1 KP599644 MITC95” value came to 25 µM. Also, in assay [6], the “IMP1 SM5741 MITC95” value stood at 18.8 µM.
For the compound `Cc1ccc(C[C@H](c2nn[nH]n2)[C@H](CC(C)C)C(=O)O)cc1` [Example 53, (S)-2-((S)-1-(2H-tetrazol-5-yl)-2-(p-tolyl)ethyl)-4-methylpentanoic acid], the concentration for half-maximal inhibition (IC50) in assay [1] came to 89 nM; in assay [2], 37 nM; in assay [3] it was 5.8 nM. In addition, the “NDM1 EC30016 MITC95” value in assay [4] came out at 18.8 µM. For the same compound, the “VIM1 KP599644 MITC95” value in assay [5] is 75 µM. The “IMP1 SM5741 MITC95” value in assay [6] amounted to 4.7 µM.
